US20250177396A1, “POLO-LIKE KINASE 4 (PLK4) INHIBITORS, PHARMACEUTICAL COMPOSITIONS, METHODS OF PREPARATION AND USES THEREOF” (Repare Therapeutics Inc., priority 2022, published 2025)

molecular target: T1, PLK4 (Homo sapiens, UniProt O00444); assay: PLK4 NanoBRET target engagement assay; assay type: binding; conditions: HEK293 T cells transfected with PLK4 NanoLuc fusion vector; K-5 tracer; 2 hrs incubation
T1 construct: expressed in transfected cells; host or cells: HEK293 T cells (ATCC CRL-3216)
T1 sequence (O00444 1-970): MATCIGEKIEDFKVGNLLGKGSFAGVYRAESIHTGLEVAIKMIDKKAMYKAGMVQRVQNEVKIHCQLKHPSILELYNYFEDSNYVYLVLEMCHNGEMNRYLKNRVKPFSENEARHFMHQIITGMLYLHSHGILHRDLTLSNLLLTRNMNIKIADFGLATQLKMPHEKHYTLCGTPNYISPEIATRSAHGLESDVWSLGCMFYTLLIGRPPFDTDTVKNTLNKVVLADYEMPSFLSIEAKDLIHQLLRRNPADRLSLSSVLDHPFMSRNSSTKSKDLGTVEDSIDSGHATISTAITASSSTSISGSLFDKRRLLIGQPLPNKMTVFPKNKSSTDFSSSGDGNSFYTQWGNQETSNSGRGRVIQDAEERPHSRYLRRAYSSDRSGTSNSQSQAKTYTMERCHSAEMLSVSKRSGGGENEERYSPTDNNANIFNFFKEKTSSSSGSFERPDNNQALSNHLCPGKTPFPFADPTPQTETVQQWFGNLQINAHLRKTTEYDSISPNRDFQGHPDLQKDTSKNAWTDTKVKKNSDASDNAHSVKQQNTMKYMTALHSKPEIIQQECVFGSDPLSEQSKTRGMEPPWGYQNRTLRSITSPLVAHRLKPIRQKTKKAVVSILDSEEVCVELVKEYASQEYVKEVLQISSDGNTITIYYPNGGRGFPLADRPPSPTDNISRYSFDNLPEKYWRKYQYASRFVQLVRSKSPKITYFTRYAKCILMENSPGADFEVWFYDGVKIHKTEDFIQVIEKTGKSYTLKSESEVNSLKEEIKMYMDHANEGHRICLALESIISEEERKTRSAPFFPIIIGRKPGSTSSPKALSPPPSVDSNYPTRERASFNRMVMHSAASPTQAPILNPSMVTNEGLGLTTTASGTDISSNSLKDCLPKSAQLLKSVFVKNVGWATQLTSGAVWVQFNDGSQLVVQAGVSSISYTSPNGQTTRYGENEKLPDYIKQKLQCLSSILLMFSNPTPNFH
Method in brief: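 HEK293T cells transiently expressing PLK4-NanoLuc, plated at 17000 cells/well with K-5 tracer and compound, incubated 2 h at 37 °C/5% CO2. After substrate/inhibitor mix, 610/450 nm emission ratio ×1000 gave mBRET; IC50 from 4-parameter fit.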

IC50 [nM]	SMILES
13	Cc1cc(Nc2nc(N(C)c3cc(F)c(S(C)(=O)=O)cc3F)nc(-c3cn(C)c(C)n3)c2C2CC2)n[nH]1 [Compound 187]
8	COCCn1cc(-c2nc(N(C)c3c(F)cc(S(C)(=O)=O)cc3F)nc(Nc3cc(C)[nH]n3)c2C2CC2)nc1C [Compound 188]
150	Cc1cc(Nc2nc(Nc3c(F)cc(S(C)(=O)=O)cc3F)nc(-c3cn(C)cn3)c2C2CC2)n[nH]1 [Compound 189]
610	Cc1cc(Nc2nc(N(C)c3c(F)cc(S(C)(=O)=O)cc3F)nc(-c3cn(CCS(C)(=O)=O)c(C)n3)c2C2CC2)n[nH]1 [Compound 192]
3	Cc1cc(Nc2nc(N(C)c3c(F)cc(S(C)(=O)=O)cc3F)nc(-c3cnn([C@H]4CC[C@H](O)CC4)c3)c2C2CC2)n[nH]1 [Compound 193]
63	Cc1cc(Nc2nc(N(C)c3cc(F)c(S(C)(=O)=O)cc3F)nc(-c3ccn(C(F)F)n3)c2C2CC2)n[nH]1 [Compound 194]
24	Cc1cc(Nc2nc(N(C)c3cc(F)c(S(C)(=O)=O)cc3F)nc(-c3cn4c(n3)CCC4)c2C2CC2)n[nH]1 [Compound 197]
4	Cc1cc(Nc2nc(N(C)c3c(F)cc(S(C)(=O)=O)cc3F)nc(-c3cn(C)nc3C3CC3)c2C2CC2)n[nH]1 [Compound 198]
17	Cc1cc(Nc2nc(N(C)c3ccc(S(C)(=O)=O)cc3F)nc(-c3cn(C(C)C)cn3)c2C2CC2)n[nH]1 [Compound 199]
8	Cc1cc(Nc2nc(N(C)c3cc(F)c(S(C)(=O)=O)cc3F)nc(-c3cn(C(C)C)cn3)c2C2CC2)n[nH]1 [Compound 200]
7	Cc1cc(Nc2nc(N(C)c3c(F)cc(S(C)(=O)=O)cc3F)nc(-c3cnn(CCO)c3C)c2C2CC2)n[nH]1 [Compound 201]
6	Cc1cc(Nc2nc(N(C)c3c(F)cc(S(C)(=O)=O)cc3F)nc(-c3cn(CCO)nc3C)c2C2CC2)n[nH]1 [Compound 202]
6	Cc1cc(Nc2nc(N(C)c3c(F)cc(S(C)(=O)=O)cc3F)nc(-c3cnn4c3OCCC4)c2C2CC2)n[nH]1 [Compound 203]
8	Cc1cc(Nc2nc(N(C)c3c(F)cc(S(C)(=O)=O)cc3F)nc(-c3cn(C)c(C#N)n3)c2C2CC2)n[nH]1 [Compound 204]
22	Cc1cc(Nc2nc(N(C)c3c(F)cc(S(C)(=O)=O)cc3F)nc(-c3ccn(C)c(=O)c3)c2C2CC2)n[nH]1 [Compound 205]
4	Cc1cc(Nc2nc(N(C)c3c(F)cc(S(C)(=O)=O)cc3F)nc(-c3cnn(CC#N)c3)c2C2CC2)n[nH]1 [Compound 206]
6	Cc1cc(Nc2nc(N(C)c3cc(F)c(S(C)(=O)=O)cc3F)nc(-c3cn(C4CC4)cn3)c2C2CC2)n[nH]1 [Compound 207]
9	Cc1cc(Nc2nc(N(C)c3ccc(S(C)(=O)=O)cc3F)nc(-c3cn(C4CC4)cn3)c2C2CC2)n[nH]1 [Compound 208]
5	Cc1cc(Nc2nc(N(C)c3c(F)cc(S(C)(=O)=O)cc3F)nc(-c3ccn(C4CC4)n3)c2C2CC2)n[nH]1 [Compound 209]
8	Cc1cc(Nc2nc(N(C)c3cc(F)c(S(C)(=O)=O)cc3F)nc(-c3cn4c(n3)CCOC4)c2C2CC2)n[nH]1 [Compound 210]
40	Cc1cc(Nc2nc(N(C)c3c(F)cc(S(C)(=O)=O)cc3F)nc(-c3cn4c(n3)CNCC4)c2C2CC2)n[nH]1 [Compound 211]
53	CC(=O)N1CCn2cc(-c3nc(N(C)c4c(F)cc(S(C)(=O)=O)cc4F)nc(Nc4cc(C)[nH]n4)c3C3CC3)nc2C1 [Compound 212]
6	Cc1cc(Nc2nc(N(C)c3c(F)cc(S(C)(=O)=O)cc3F)nc(-c3cnn(CC(C)(C)O)c3)c2C2CC2)n[nH]1 [Compound 213]
69	Cc1cc(Nc2nc(N(C)c3c(F)cc(S(C)(=O)=O)cc3F)nc(-c3ncn(C)n3)c2C2CC2)n[nH]1 [Compound 215]
190	Cc1cc(Nc2nc(N(C)c3c(F)cc(S(C)(=O)=O)cc3F)nc(-c3ncnn3C)c2C2CC2)n[nH]1 [Compound 216]
